Laboratory results as given in ChEMBL document CHEMBL5346922, “Discovery of phenylcarbamoyl xanthone derivatives as potent neuroprotective agents for treating ischemic stroke” (Eur J Med Chem, 2023).
The source made the active and inactive calls. No cut-off for these calls is given here.

What was measured:
PC-12 [1] = test: Cytotoxicity against rat PC12 cells assessed as reduction in cell viability at 80 uM incubated for 24 hrs by MTT assay; format: functional
PC-12 [2] = test: Cytotoxicity against rat PC12 cells assessed as reduction in cell viability incubated for 24 hrs by MTT assay; format: functional, cell-based
PC-12 [3] = test: Neuroprotective activity in rat PC12 cells assessed as protection against glutamate induced excitotoxicity at 20 uM pretreated with glutamate for 24 hrs followed by compound addition and measured after 24 hrs; format: functional
PC-12 [4] = test: Neuroprotective activity against glutamate induced excitotoxicity in rat PC12 cells assessed as cell survival at 20 uM pretreated with glutamate for 24 hrs followed by compound addition and measured after 24 hrs; format: functional; conditions: read-out: Survival
PC-12 [5] = test: Neuroprotective activity against H2O2-induced oxidative damage in rat PC12 cells at 20 uM pretreated with H2O2 for 24 hrs followed by compound addition and measured after 24 hrs; format: functional
PC-12 [6] = test: Neuroprotective activity against H2O2-induced oxidative damage in rat PC12 cells assessed as increase in cell survival at 20 uM pretreated with H2O2 for 24 hrs followed by compound addition and measured after 24 hrs; format: functional; conditions: read-out: Survival
PC-12 [7] = test: Neuroprotective activity against H2O2-induced oxidative damage in rat PC12 cells pretreated with H2O2 for 24 hrs followed by compound addition and measured after 24 hrs; format: functional, cell-based
PC-12 [8] = test: Neuroprotective activity against glutamate induced excitotoxicity in rat PC12 cells pretreated with glutamate for 24 hrs followed by compound addition and measured after 24 hrs; format: functional, cell-based
PC-12 [9] = test: Neuroprotective activity against glutamate induced excitotoxicity in rat PC12 cells assessed as cell survival at 25 uM pretreated with glutamate for 24 hrs followed by compound addition and measured after 24 hrs; format: functional; conditions: read-out: Survival
Rattus norvegicus [10] = test: Neuroprotective activity against middle cerebral artery occlusion induced ischemia stroke Sprague-Dawley rat model assessed as decrease in brain water content at 60 mg/kg, ip measured after 24 hrs (reference value: 83.17 +/- 2.40%); format: functional; design: scale not given: the % may be the effect or the level left
Rattus norvegicus [11] = test: Neuroprotective activity against middle cerebral artery occlusion induced ischemia stroke Sprague-Dawley rat model assessed as decrease in cerebral infarction area at 60 mg/kg, ip measured after 24 hrs by TTC staining based microscopic assay (reference value: 15.91 +/- 9.06 %); format: functional; design: scale not given: the % may be the effect or the level left
Rattus norvegicus [12] = test: Neuroprotective activity against middle cerebral artery occlusion induced ischemia stroke Sprague-Dawley rat model assessed as Zea-longa score at 20 mg/kg, po measured after 24 hrs (reference value: 2.17+/- 0.37); format: functional
PC-12 [13] = test: Neuroprotective activity against glutamate induced excitotoxicity in rat PC12 cells assessed as cell survival at 160 uM pretreated with glutamate for 24 hrs followed by compound addition and measured after 24 hrs; format: functional; conditions: read-out: Survival
PC-12 [14] = test: Neuroprotective activity in rat PC12 cells assessed as protection against glutamate induced excitotoxicity at 160 uM pretreated with glutamate for 24 hrs followed by compound addition and measured after 24 hrs; format: functional

Row | SMILES | Activity (PC-12 [3]) [%] | viability at 20 µM (PC-12 [4]) [%] | Activity (PC-12 [5]) [%] | viability at 20 µM (PC-12 [6]) [%] | further results
1 | COc1c(OC(=O)N(C)c2ccccc2)cc2oc3c(CN(C)C)c4c(c(O)c3c(=O)c2c1CC=C(C)C)C=CC(C)(C)O4 |  |  |  |  | Activity (PC-12 [1]): 90%; IC50 (PC-12 [2]; PC-12, 24 h): 5 µM
2 | COc1ccccc1N(C)C(=O)Oc1cc2oc3cc4c(c(O)c3c(=O)c2c(CC=C(C)C)c1OC)C=CC(C)(C)O4 | 25.79 | 48.4 | 13.94 | 61.6 | 
3 | COc1c(OC(=O)N(C)c2ccc(C)cc2)cc2oc3cc4c(c(OC)c3c(=O)c2c1CC=C(C)C)C=CC(C)(C)O4 | 26.81 | 49.1 | 33.3 | 70.2 | 
4 | COc1c(OC(=O)N(C)c2ccccc2F)cc2oc3cc4c(c(O)c3c(=O)c2c1CC=C(C)C)C=CC(C)(C)O4 | 43.78 | 60.9 | 34.69 | 70.9 | 
5 | COc1c(OC(=O)N(CC2CC2)c2cccc(Cl)c2)cc2oc3cc4c(c(O)c3c(=O)c2c1CC=C(C)C)C=CC(C)(C)O4 | 46.68 | 62.9 | 45.94 | 75.9 | EC50 (PC-12 [7]): 26.2 µM
6 | CCc1cccc(N(C)C(=O)Oc2cc3oc4cc5c(c(O)c4c(=O)c3c(CC=C(C)C)c2OC)C=CC(C)(C)O5)c1 | 37.14 | 56.3 | 11.9 | 60.7 | 
7 | COc1c(OC(=O)N(C)c2ccccc2C)cc2oc3cc4c(c(OC)c3c(=O)c2c1CC=C(C)C)C=CC(C)(C)O4 | 31.44 | 52.3 | 31.11 | 69.3 | 
8 | COc1c(OC(=O)N(C)c2ccc(C)cc2)cc2oc3cc4c(c(O)c3c(=O)c2c1CC=C(C)C)C=CC(C)(C)O4 | 29.08 | 50.7 | 17.03 | 63 | 
9 | COc1ccc(N(C)C(=O)Oc2cc3oc4cc5c(c(O)c4c(=O)c3c(CC=C(C)C)c2OC)C=CC(C)(C)O5)cc1 | 26.88 | 49.2 | 16 | 62.5 | 
10 | CCN(C(=O)Oc1cc2oc3cc4c(c(O)c3c(=O)c2c(CC=C(C)C)c1OC)C=CC(C)(C)O4)c1ccccc1 | 38.13 | 57 | 21.74 | 65.1 | 
11 | COc1c(OC(=O)N(C)c2ccccc2C)cc2oc3cc4c(c(O)c3c(=O)c2c1CC=C(C)C)C=CC(C)(C)O4 | 36.26 | 55.7 | 25.55 | 66.8 | 
12 | COc1c(OC(=O)N(C)c2ccccc2)cc2oc3c(CN4CCN(C)CC4)c4c(c(O)c3c(=O)c2c1CC=C(C)C)C=CC(C)(C)O4 |  |  |  |  | Activity (PC-12 [2]): Active
13 | COc1c(OC(=O)N(CC2CC2)c2cccc(Br)c2)cc2oc3cc4c(c(O)c3c(=O)c2c1CC=C(C)C)C=CC(C)(C)O4 | 23.09 | 46.5 | 17.48 | 63.2 | 
14 | COc1c(OC(=O)N(CC2CC2)c2cccc(F)c2)cc2oc3cc4c(c(O)c3c(=O)c2c1CC=C(C)C)C=CC(C)(C)O4 | 55.65 | 69.2 | 42.67 | 74.4 | EC50 (PC-12 [7]): 24.8 µM; EC50 (PC-12 [8]): 17.3 µM
15 | COc1c(OC(=O)N(C)c2ccccc2)cc2oc3cc4c(c(OCc5ccc(C(F)(F)F)cc5)c3c(=O)c2c1CC=C(C)C)C=CC(C)(C)O4 | 6.46 | 35 | 12.35 | 60.9 | 
16 | COc1c(OC(=O)N(C)c2ccc(C(C)(C)C)cc2)cc2oc3cc4c(c(O)c3c(=O)c2c1CC=C(C)C)C=CC(C)(C)O4 | 12.14 | 38.9 | 18.35 | 63.6 | 
17 | N[C@@H](CCC(=O)O)C(=O)O [GLUTAMIC ACID] |  |  |  |  | viability at 25 µM (PC-12 [9]): 30.5%
18 | COc1c(OC(=O)N(CC2CC2)c2ccc(C)cc2)cc2oc3cc4c(c(O)c3c(=O)c2c1CC=C(C)C)C=CC(C)(C)O4 | 48.26 | 64 | 30.57 | 69 | 
19 | CCCCC1OC(=O)c2ccccc21 (stereo not drawn) [RAC-3-N-BUTYLPHTHALIDE] |  |  |  |  | Activity (Rattus norvegicus [10]): 82.2%; Activity (Rattus norvegicus [11]): 1.64%; Activity (Rattus norvegicus [12]): 1.33

Row | SMILES | Activity (PC-12 [3]) [%] | viability at 20 µM (PC-12 [4]) [%] | Activity (PC-12 [5]) [%] | viability at 20 µM (PC-12 [6]) [%] | further results
20 | CC12CC3CC(C)(C1)CC(N)(C3)C2 [MEMANTINE] |  |  |  |  | viability at 160 µM (PC-12 [13]): 63%; Activity (PC-12 [14]): 46.85%
21 | CCc1ccccc1N(C)C(=O)Oc1cc2oc3cc4c(c(O)c3c(=O)c2c(CC=C(C)C)c1OC)C=CC(C)(C)O4 | 35.36 | 55.1 | 17.35 | 63.1 | 
22 | COc1c(OC(=O)N(C)c2cccc(C)c2)cc2oc3cc4c(c(O)c3c(=O)c2c1CC=C(C)C)C=CC(C)(C)O4 | 39.04 | 57.6 | 25.7 | 66.8 | 
23 | COc1c(OC(=O)N(CC2CC2)c2ccccc2)cc2oc3cc4c(c(O)c3c(=O)c2c1CC=C(C)C)C=CC(C)(C)O4 | 53.91 | 68 | 42.11 | 74.2 | EC50 (PC-12 [7]): 29.2 µM; EC50 (PC-12 [8]): 20.9 µM
24 | COc1c(OC(=O)N(C)c2ccccc2)cc2oc3cc4c(c(OC)c3c(=O)c2c1CC=C(C)C)C=CC(C)(C)O4 | 46.32 | 62.7 | 34.72 | 70.9 | 
25 | COc1c(OC(=O)N(C)c2cccc(Cl)c2)cc2oc3cc4c(c(OC)c3c(=O)c2c1CC=C(C)C)C=CC(C)(C)O4 | 7.91 | 36 | 28.17 | 68 | 
26 | COc1c(OC(=O)N(CC2CC2)c2ccccc2C)cc2oc3cc4c(c(O)c3c(=O)c2c1CC=C(C)C)C=CC(C)(C)O4 | 0 | 30.5 | 11.7 | 60.6 | 
27 | COc1c(OC(=O)N(C)c2cccc(F)c2)cc2oc3cc4c(c(O)c3c(=O)c2c1CC=C(C)C)C=CC(C)(C)O4 | 53.62 | 67.8 | 12.46 | 60.9 | EC50 (PC-12 [8]): 19.7 µM
28 | CCOc1cccc(N(C)C(=O)Oc2cc3oc4cc5c(c(O)c4c(=O)c3c(CC=C(C)C)c2OC)C=CC(C)(C)O5)c1 | 18.96 | 43.7 | 8.38 | 59.1 | 
29 | COc1c(OC(=O)N(C)c2ccc(F)cc2)cc2oc3cc4c(c(O)c3c(=O)c2c1CC=C(C)C)C=CC(C)(C)O4 | 52.82 | 67.2 | 43.32 | 74.7 | EC50 (PC-12 [7]): 28.8 µM; EC50 (PC-12 [8]): 21.3 µM
30 | CC1=NN(c2ccccc2)C(=O)C1 [EDARAVONE] |  |  | 56.36 | 80.5 | 
31 | COc1c(OC(=O)N(C)c2cccc(Cl)c2)cc2oc3cc4c(c(O)c3c(=O)c2c1CC=C(C)C)C=CC(C)(C)O4 | 1.57 | 31.6 | 6.23 | 58.2 | 
32 | COc1c(OC(=O)N(C)c2cccc(Br)c2)cc2oc3cc4c(c(O)c3c(=O)c2c1CC=C(C)C)C=CC(C)(C)O4 | 3.74 | 33.1 | 5.11 | 57.7 | 
33 | COc1c(OC(=O)N(CC2CC2)c2cccc(C)c2)cc2oc3cc4c(c(O)c3c(=O)c2c1CC=C(C)C)C=CC(C)(C)O4 | 35.08 | 54.9 | 39.49 | 73 | 
34 | COc1cccc(N(C)C(=O)Oc2cc3oc4cc5c(c(O)c4c(=O)c3c(CC=C(C)C)c2OC)C=CC(C)(C)O5)c1 | 31.84 | 52.6 | 9.57 | 59.6 | 
35 | COc1c(OC(=O)N(C)c2cccc(C)c2)cc2oc3cc4c(c(OC)c3c(=O)c2c1CC=C(C)C)C=CC(C)(C)O4 | 38.81 | 57.5 | 15.51 | 62.3 | 
36 | CCc1ccc(N(C)C(=O)Oc2cc3oc4cc5c(c(O)c4c(=O)c3c(CC=C(C)C)c2OC)C=CC(C)(C)O5)cc1 | 29.26 | 50.8 | 22.79 | 65.5 | 
37 | COc1c(OC(=O)N(C)c2ccccc2)cc2oc3cc4c(c(OCc5ccc(F)cc5)c3c(=O)c2c1CC=C(C)C)C=CC(C)(C)O4 | 0.01 | 31 | 22.59 | 65.5 | 
